Reference: patent publication US20080119534A1, “Benzimidazole Derivatives as Therapeutic Agents” (Trans Tech Pharma, Inc, priority 2001, published 2008)
Counter-ions that a name gives are not always drawn.

Experiments:
sRAGE (ligand S-100b) = target: T1, sRAGE (ligand S-100b) (Homo sapiens, UniProt Q15109); test: ELISA assay: inhibition of sRAGE binding to plate-bound S100b; conditions: sRAGE binding to immobilised S100b; concentration at which 50% signal has been inhibited
T1 construct: extracellular domain can be isolated by proteolysis of RAGE to generate soluble RAGE (sRAGE) comprised of the V and C domains
Procedure: (§1) S100b, β-amyloid and CML (500 ng/100 μL/well) in 100 mM sodium bicarbonate/sodium carbonate buffer (pH 9.8) is loaded onto the wells of a NUNC Maxisorp flat bottom 96-well microtitre plate. The plate is incubated at 4° C. overnight. The wells are aspirated and treated with 50 mM imidazole buffer saline (pH 7.2) (with 1 mM CaCl2/MgCl2) containing 1% bovine serum albumin (BSA) (300 μL/well) for two h at 37° C.
(§2) Test compounds are dissolved in nanopure water (concentration: 10-100 μM). DMSO may be used as co-solvent. 25 μL of test compound solution in 2% DMSO is added, along with 75 μL sRAGE (4.0×10^−4 mg/mL FAC) to each well and samples are incubated for 1 h at 37° C. The wells are washed 3 times with 155 mM NaCl pH 7.2 buffer saline and are soaked 10 seconds between each wash.
(§3) Non-radioactive binding is performed by adding:
(§4) 10 μL Biotinylated goat F(ab′)2 Anti-mouse IgG. (8.0×10^−4 mg/mL, FAC)
(§5) 10 μL Alkaline phosphatase Streptavidin (3×10^−3 mg/mL FAC)
(§6) 10 μL Polyclonal antibody for sRAGE (FAC 6.0×10^−3 mg/mL)
(§7) to 5 mL 50 mM imidazole buffer saline (pH 7.2) containing 0.2% bovine serum albumin and 1 mM CaCl2. The mixture is incubated for 30 minutes at 37° C. 100 μL complex is added to each well and incubation is allowed to proceed at rt for 1 h. Wells are washed 3 times with wash buffer and soaked 10 s between each wash. 100 μL 1 mg/mL (pNPP) in 1 M diethanolamine (pH adjusted to 9.8 with HCl) is added. Color is allowed to develop in the dark for 1 to 2 h at rt. The reaction is quenched with 10 μL of stop solution (0.5 N NaOH in 50% ethanol) and the absorbance is measured spectrophotometrically with a microplate reader at 405 nm.

sRAGE (ligand Amyloid-β) = target: T2, sRAGE (ligand Amyloid-β) (Homo sapiens, UniProt Q15109); test: ELISA assay: inhibition of sRAGE binding to plate-bound β-amyloid; conditions: sRAGE binding to immobilised β-amyloid; concentration at which 50% signal has been inhibited
T2 construct: extracellular domain can be isolated by proteolysis of RAGE to generate soluble RAGE (sRAGE) comprised of the V and C domains
Procedure: as §1, §2, §3, §4, §5, §6, §7

[1] = target: T3, sRAGE (ligand Carboxymethyl Lysine (CML)) (Homo sapiens, UniProt Q15109); test: ELISA assay: inhibition of sRAGE binding to plate-bound CML; conditions: sRAGE binding to immobilised CML; concentration at which 50% signal has been inhibited
T3 construct: extracellular domain can be isolated by proteolysis of RAGE to generate soluble RAGE (sRAGE) comprised of the V and C domains
Procedure: as §1, §2, §3, §4, §5, §6, §7

T1 sequence (Q15109 23-342 limits assumed): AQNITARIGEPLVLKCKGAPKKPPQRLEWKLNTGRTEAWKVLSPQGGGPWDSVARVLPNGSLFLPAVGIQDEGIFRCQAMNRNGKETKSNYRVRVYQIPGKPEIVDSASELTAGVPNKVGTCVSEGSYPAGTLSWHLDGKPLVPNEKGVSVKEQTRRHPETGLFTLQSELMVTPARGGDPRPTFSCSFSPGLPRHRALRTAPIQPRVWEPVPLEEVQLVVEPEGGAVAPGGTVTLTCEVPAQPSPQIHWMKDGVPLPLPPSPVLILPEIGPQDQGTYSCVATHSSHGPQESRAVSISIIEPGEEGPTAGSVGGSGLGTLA
T3 sequence (Q15109 23-342 limits assumed): as above
T2 sequence (Q15109 23-342 limits assumed): as above

SMILES | IC50 (sRAGE (ligand S-100b)) | IC50 (sRAGE (ligand Amyloid-β)) | IC50 [1]
CCCn1c([C@@H](Cc2ccc(OCc3ccccc3)cc2)NC(=O)OC(C)(C)C)nc2ccc(OCCCN(CC)CC)cc21 [Example 15, 2-[(1R)-2-(4-Benzyloxyphenyl)-1-(tert-butoxycarbonylamino)-1-ethyl]-3-propyl-5-(3-diethylamino-1-propoxy)benzimidazole] | 5 to 10 µM | 5 to 10 µM | 5 to 10 µM
CCN(CC)CCCOc1ccc2[nH]c([C@@H](Cc3ccc(OCc4ccccc4)cc3)NC(=O)OC(C)(C)C)nc2c1 [Example 5, 2-[(1R)-2-(4-Benzyloxyphenyl)-1-tert-butoxycarbonylamino-1-ethyl]-6-(3-diethylamino-1-propoxy)benzimidazole] | 10 to 20 µM |  | 5 to 10 µM
CCCn1c([C@H](N)Cc2ccc(OCc3ccccc3)cc2)nc2ccc(OCCCN(CC)CC)cc21 [Example 16, 2-[(1R)-2-(4-Benzyloxyphenyl)-1-amino-1-ethyl]-3-propyl-5-(3-diethylamino-1-propoxy)benzimidazole] | 5 to 10 µM | 10 to 20 µM | 10 to 20 µM
CCN(CC)CCCOc1ccc2[nH]c([C@H](N)Cc3ccc(OCc4ccccc4)cc3)nc2c1 [Example 6, 2-[(1R)-2-(4-Benzyloxyphenyl)-1-amino-1-ethyl]-6-(3-diethylamino-1-propoxy)benzimidazole] | 5 to 10 µM | 5 to 10 µM | 1 to 5 µM
CCN(CC)CCCOc1ccc2nc([C@H](N)Cc3ccc(OCc4ccccc4)cc3)n(Cc3ccccc3)c2c1 [Example 14, 2-[(1R)-2-(4-Benzyloxyphenyl)-1-amino-1-ethyl]-3-benzyl-5-(3-diethylamino-1-propoxy)benzimidazole] | 5 to 10 µM | 10 to 20 µM | 5 to 10 µM
CCN(CC)CCCOc1ccc2nc([C@@H](Cc3ccc(OCc4ccccc4)cc3)NC(=O)OC(C)(C)C)n(CCCN(CC)CC)c2c1 [Example 10, 2-[(1R)-2-(4-Benzyloxyphenyl)-1-(tert-butoxycarbonylamino)-1-ethyl]-3-(3-diethylamino-1-propyl)-5-(3-diethylamino-1-propoxy)benzimidazole] | 1 to 5 µM | 5 to 10 µM | 1 to 5 µM
CCN(CC)CCCOc1ccc2nc([C@@H](Cc3ccc(OCc4ccccc4)cc3)NC(=O)OC(C)(C)C)n(CC)c2c1 [Example 11, 2-[(1R)-2-(4-Benzyloxyphenyl)-1-(tert-butoxycarbonylamino)-1-ethyl]-3-ethyl-5-(3-diethylamino-1-propoxy)benzimidazole] | 1 to 5 µM | 1 to 5 µM | 1 to 5 µM
CCCCn1c([C@H](N)Cc2ccc(OCc3ccccc3)cc2)nc2cc(OCCCN(CC)CC)ccc21 [Example 4, 2-[(1R)-2-(4-Benzyloxyphenyl)-1-amino-1-ethyl]-3-butyl-6-(3-diethylamino-1-propoxy)benzimidazole] | 1 to 5 µM | 1 to 5 µM | 1 to 5 µM
CCCCn1c([C@H](N)Cc2ccc(OCc3ccccc3)cc2)nc2ccc(OCCCN(CC)CC)cc21 [Example 2, 2-[(1R)-2-(4-Benzyloxyphenyl)-1-amino-1-ethyl]-3-butyl-5-(3-diethylamino-1-propoxy)benzimidazoleTrihydrochloride] | 1 to 5 µM | 1 to 5 µM | 1 to 5 µM
CCCCn1c([C@@H](Cc2ccc(OCc3ccccc3)cc2)NC(=O)OC(C)(C)C)nc2cc(OCCCN(CC)CC)ccc21 [Example 3, 2-[(1R)-2-(4-Benzyloxyphenyl)-1-tert-butoxycarbonylamino-1-ethyl]-3-butyl-6-(3-diethylamino-1-propoxy)benzimidazole] | 1 to 5 µM | 1 to 5 µM | 1 to 5 µM
CCCCn1c([C@@H](Cc2ccc(OCCc3ccc(Cl)cc3)cc2)NC(=O)OC(C)(C)C)nc2ccc(OCCCN(CC)CC)cc21 [Example 9] | 0.5 to 1 µM | 0.5 to 1 µM | 0.5 to 1 µM
CCCCn1c([C@@H](Cc2ccc(OCC)cc2)NC(=O)OC(C)(C)C)nc2ccc(OCCCN(CC)CC)cc21 [Example 8, 2-[(1R)-2-(4-Ethoxyphenyl)-1-(tert-butoxycarbonylamino)-1-ethyl]-3-butyl-5-(3-diethylamino-1-propoxy)benzimidazole] | 5 to 10 µM | 5 to 10 µM | 1 to 5 µM
CCCCn1c([C@@H](Cc2ccc(OCc3ccccc3)cc2)NC(=O)OC(C)(C)C)nc2ccc(OCCCN(CC)CC)cc21 [Example 1, 2-[(1R)-2-(4-Benzyloxyphenyl)-1-tert-butoxycarbonylamino-1-ethyl]-3-butyl-5-(3-diethylamino-1-propoxy)benzimidazole] | 1 to 5 µM | 1 to 5 µM | 0.5 to 1 µM
CCN(CC)CCCOc1ccc2nc([C@H](N)Cc3ccc(OCc4ccccc4)cc3)n(CCCN(CC)CC)c2c1 [Example 12, 2-[(1R)-2-(4-Benzyloxyphenyl)-1-amino-1-ethyl]-3-(3-diethylamino-1-propyl)-5-(3-diethylamino-1-propoxy)benzimidazole] | 1 to 5 µM | 1 to 5 µM | 1 to 5 µM
CCN(CC)CCCOc1ccc2nc([C@@H](Cc3ccc(OCc4ccccc4)cc3)NC(=O)OC(C)(C)C)n(Cc3ccccc3)c2c1 [Example 13, 2-[(1R)-2-(4-Benzyloxyphenyl)-1-(tert-butoxycarbonylamino)-1-ethyl]-3-benzyl-5-(3-diethylamino-1-propoxy)benzimidazole] | 5 to 10 µM | 5 to 10 µM | 5 to 10 µM
CCCCn1c(C(Cc2cccc(OCc3ccccc3)c2)NC(=O)OC(C)(C)C)nc2ccc(OCCCN(CC)CC)cc21 (centres unmarked) [Example 7, 2-[2-(3-Benzyloxyphenyl)-1-(tert-butoxycarbonylamino)-1-ethyl]-3-butyl-5-(3-diethylamino-1-propoxy)benzimidazole] | 1 to 5 µM | 1 to 5 µM | 1 to 5 µM
